The values below are quoted from earlier work in patent publication US8257686B2, “Compositions and methods relating to prevention of chemotherapy-induced alopecia” (HSF Pharmaceuticals S.A., priority 2000, dated 2012).

The test system of this series is chemotherapy-induced hair loss. The note with it: review Dorr 1998; Sredni et al. 1996.
`C=C1/C(=C\C=C2/CCC[C@]3(C)[C@@H]([C@H](C)CCCC(C)(C)O)CC[C@@H]23)C[C@@H](O)C[C@@H]1O` [1,25-dihydroxyvitamin D3]: the “prevention of chemotherapy-induced hair loss” value was “showed a marked sex preference”.
`Cl[TeH]1(Cl)(Cl)OCCO1` [AS101, ammonium trichloro (dioxy-ethylene-0,0′) tellurate]: the “prevention of chemotherapy-induced hair loss” value is “More promising results”.
Take `Cc1c(C)c2c(c(C)c1O)CC[C@@](C)(CCC[C@H](C)CCC[C@H](C)CCCC(C)C)O2` [alpha-tocopherol]: the “prevention of chemotherapy-induced hair loss” value was “failed”.
On to `C=C1/C(=C\C=C2/CCC[C@]3(C)[C@@H]([C@H](C)CCCC(C)(C)O)CC[C@@H]23)C[C@@H](O)C[C@@H]1O` [calcitriol], for which the “prevention of chemotherapy-induced hair loss” value is reported as “failed”.
